Reference: US11053253B2, “Macrocyclic compounds for treatment of medical disorders” (Achillion Pharmaceuticals, Inc., priority 2017, dated 2021)

The compounds below were run against Human Factor D (Homo sapiens (Human), UniProt P00746) (assay: Human Factor D Assay). Details: Human Factor D 80 nM, substrate Z-L-Lys-SBzl, DTNB, A405; read-out: IC50 (Stars).
Type: biochemical
Method in brief: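 Serum-purified enzyme (80 nM final) was preincubated with compound 5 min at room temperature in 50 mM Tris, 1M NaCl, pH 7.5. Z-L-Lys-SBzl and DTNB ([…] each, final) were added and A405 followed every 30 s for 30 min; IC50 from nonlinear regression of reaction rates.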

Chain of Human Factor D (P00746 26-253): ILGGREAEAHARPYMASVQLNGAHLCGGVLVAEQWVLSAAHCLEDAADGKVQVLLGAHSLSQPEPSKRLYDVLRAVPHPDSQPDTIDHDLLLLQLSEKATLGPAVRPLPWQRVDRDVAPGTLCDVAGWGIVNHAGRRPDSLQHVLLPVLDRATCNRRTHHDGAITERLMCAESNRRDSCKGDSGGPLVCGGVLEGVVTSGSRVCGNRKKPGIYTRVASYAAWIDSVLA

SMILES | IC50
CC(=O)c1nn(CC(=O)N2[C@H]3C[C@@]4(CNC(=O)C(C)(C)CCCCc5ccc(Br)nc5NC3=O)C[C@@H]24)c2ccc(-c3cnc(C)nc3)cc12 [Compound T-183] | < 1000 nM
CC(=O)c1nn2c3c(cc(-c4cnc(C)nc4)cc13)CC=CCCC(C)(C)C(=O)NC[C@@]13C[C@@H](C(=O)Nc4ccn(CC(F)(F)F)n4)N(C(=O)C2)[C@@H]1C3 [Compound T-184] | < 1000 nM
CC(=O)c1nn2c3c(cc(-c4cnc(C)nc4)cc13)CCCCCC(C)(C)C(=O)NC[C@@]13C[C@@H](C(=O)Nc4ccn(CC(F)(F)F)n4)N(C(=O)C2)[C@@H]1C3 [Compound T-185] | < 1000 nM
CC(=O)c1nn2c3c(cc(-c4cnc(C)nc4)cc13)CCCCCC(C)(C)C(=O)N(C)C[C@@]13C[C@@H](C(=O)Nc4cccc(C(F)(F)F)n4)N(C(=O)C2)[C@@H]1C3 [Compound T-186] | < 1000 nM
Cc1ncc(-c2cc3c4c(c2)c(C(N)=O)nn4CC(=O)N2[C@H](C(=O)Nc4nc(C(F)(F)F)ccc4C)C[C@@]4(COCCCCCCC3)C[C@@H]24)cn1 [Compound T-187] | < 1000 nM
CC(=O)c1nn2c3c(cc(-c4cnc(C)nc4)cc13)CCCCCCC(=O)NC[C@@]13C[C@@H](C(=O)N[C@H](C)c4ccccc4)N(C(=O)C2)[C@@H]1C3 [Compound T-188] | < 1000 nM
CC(=O)c1nn2c3c(cc(-c4cnc(C)nc4)cc13)CC=CCCCC(=O)NC[C@@]13C[C@@H](C(=O)Nc4cc(C)cc(Br)n4)N(C(=O)C2)[C@@H]1C3 [Compound T-189] | < 1000 nM
CC(=O)c1nn2c3c(cc(-c4cnc(C)nc4)cc13)CCCCCCC(=O)NC[C@@]13C[C@@H](C(=O)Nc4cc(C)cc(Br)n4)N(C(=O)C2)[C@@H]1C3 [Compound T-190] | < 1000 nM
CC(=O)c1nn2c3c(cc(-c4cnc(C)nc4)cc13)CCCCCC(C)(C)C(=O)N(C)C[C@@]13C[C@@H](C(=O)Nc4ccn(CC(F)(F)F)n4)N(C(=O)C2)[C@@H]1C3 [Compound T-191] | < 1000 nM
CC(=O)c1nn(CC(=O)N2[C@H]3C[C@@]4(COCC=CCOCc5ccc(Br)nc5NC3=O)C[C@@H]24)c2c(C)cc(-c3cnc(C)nc3)cc12 [Compound T-192] | < 1000 nM
CC(=O)c1nn(CC(=O)N2[C@H]3C[C@@]4(COCC=CCOCc5ccc(Br)nc5NC3=O)C[C@@H]24)c2c(C)nc(-c3cnc(C)nc3)cc12 [Compound T-193] | < 1000 nM
CC(=O)c1nn(CC(=O)N2C[C@@]3(F)COCCCCCCCCc4ccc(Br)nc4NC(=O)[C@@H]2C3)c2ccc(-c3cnc(C)nc3)cc12 [Compound T-194] | < 1000 nM
CC(=O)c1nn(CC(=O)N2C[C@@]3(F)COCCCCCCc4ccc(Br)nc4NC(=O)[C@@H]2C3)c2ccc(-c3cnc(C)nc3)cc12 [Compound T-195] | < 1000 nM
CC(=O)c1nn2c3c(cc(-c4cnc(C)nc4)cc13)CCCCCCC(=O)NC[C@@]13C[C@@H](C(=O)NC[Si](C)(C)C)N(C(=O)C2)[C@@H]1C3 [Compound T-196] | 1000 to 10000 nM
CC(=O)c1nn2c3c(cc(-c4cnc(C)nc4)cc13)CCCCCCC(=O)NC[C@@]13C[C@@H](C(=O)NC/C(F)=C(/C)c4ccccc4)N(C(=O)C2)[C@@H]1C3 [Compound T-197] | < 1000 nM
CC(=O)c1nn2c3c(cc(-c4cnc(C)nc4)cc13)CCCCCCC(=O)NC[C@@]13C[C@@H](C(=O)NCC(F)=C(C)C)N(C(=O)C2)[C@@H]1C3 [Compound T-198] | < 1000 nM
CCCCNC(=O)[C@@H]1C[C@]23CNC(=O)CCCCCCc4cc(-c5cnc(C)nc5)cc5c(C(C)=O)nn(c45)CC(=O)N1[C@@H]2C3 [Compound T-199] | < 1000 nM
CCCCCNC(=O)[C@@H]1C[C@]23CNC(=O)CCCCCCc4cc(-c5cnc(C)nc5)cc5c(C(C)=O)nn(c45)CC(=O)N1[C@@H]2C3 [Compound T-200] | < 1000 nM
CC(=O)c1nn2c3c(cc(-c4cnc(C)nc4)cc13)CCCCCCC(=O)NC[C@@]13C[C@@H](C(=O)NCC(C)(C)C)N(C(=O)C2)[C@@H]1C3 [Compound T-201] | < 1000 nM
CC(=O)c1nn2c3c(cc(-c4cnc(C)nc4)cc13)CCCCCCC(=O)N(C)C[C@@]13C[C@@H](C(=O)Nc4ccn(CC(F)(F)F)n4)N(C(=O)C2)[C@@H]1C3 [Compound T-203] | < 1000 nM
CC(=O)c1nn2c3c(cc(-c4cnc(C)nc4)cc13)CC=CCCCC(=O)N(C)C[C@@]13C[C@@H](C(=O)Nc4ccn(CC(F)(F)F)n4)N(C(=O)C2)[C@@H]1C3 [Compound T-204] | < 1000 nM
CC(=O)c1nn2c3c(cc(-c4cnc(C)nc4)cc13)CCCCC[C@@H](C)C(=O)N(C)C[C@@]13C[C@@H](C(=O)Nc4nc(C(F)(F)F)ccc4C)N(C(=O)C2)[C@@H]1C3 [Compound T-205] | < 1000 nM
CC(=O)c1nn2c3c(cc(-c4cnc(C)nc4)cc13)CCCCCCC(=O)NC[C@@]13C[C@@H](C(=O)N[C@@H](C)COC(F)(F)F)N(C(=O)C2)[C@@H]1C3 [Compound T-206] | < 1000 nM
CC(=O)c1nn2c3c(cc(-c4cnc(C)nc4)cc13)CCCCCCC(=O)NC[C@@]13C[C@@H](C(=O)N[C@H](C)COC(F)(F)F)N(C(=O)C2)[C@@H]1C3 [Compound T-207] | < 1000 nM

SMILES | IC50
CC(=O)c1nn2c3c(cc(-c4cnc(C)nc4)cc13)CCCCCCC(=O)NC[C@@]13C[C@@H](C(=O)NCCOC(F)(F)F)N(C(=O)C2)[C@@H]1C3 [Compound T-208] | < 1000 nM
COc1cc(Br)nc(NC(=O)[C@@H]2C[C@]34CNC(=O)CCCC=CCc5cc(-c6cnc(C)nc6)cc6c(C(C)=O)nn(c56)CC(=O)N2[C@@H]3C4)c1 [Compound T-209] | < 1000 nM
COc1cc(Br)nc(NC(=O)[C@@H]2C[C@]34CNC(=O)CCCCCCc5cc(-c6cnc(C)nc6)cc6c(C(C)=O)nn(c56)CC(=O)N2[C@@H]3C4)c1 [Compound T-210] | < 1000 nM
CC(=O)c1nn2c3c(cc(-c4cnc(C)nc4)cc13)CC=CCCCC(=O)NC[C@@]13C[C@@H](C(=O)Nc4nc(Br)ccc4C4CC4)N(C(=O)C2)[C@@H]1C3 [Compound T-211] | < 1000 nM
CC(=O)c1nn2c3c(cc(-c4cnc(C)nc4)cc13)CCCCCCC(=O)NC[C@@]13C[C@@H](C(=O)Nc4nc(Br)ccc4C4CC4)N(C(=O)C2)[C@@H]1C3 [Compound T-212] | < 1000 nM
CC(=O)c1nn2c3c(cc(-c4cnc(C)nc4)cc13)CCCCCCC(=O)NC[C@@]13C[C@@H](C(=O)Nc4ccc(F)c(Br)n4)N(C(=O)C2)[C@@H]1C3 [Compound T-213] | < 1000 nM
CC(=O)c1nn2c3c(cc(-c4cnc(C)nc4)cc13)CC=CCCCC(=O)NC[C@@]13C[C@@H](C(=O)Nc4ccc(F)c(Br)n4)N(C(=O)C2)[C@@H]1C3 [Compound T-214] | < 1000 nM
CC(=O)c1nn2c3c(cc(-c4cnc(C)nc4)cc13)CC=CCCCC(=O)NC[C@@]13C[C@@H](C(=O)Nc4cc(C)c(F)c(Br)n4)N(C(=O)C2)[C@@H]1C3 [Compound T-217] | < 1000 nM
CC(=O)c1nn2c3c(cc(-c4cnc(C)nc4)cc13)CCCCCCC(=O)NC[C@@]13C[C@@H](C(=O)Nc4cc(C)c(F)c(Br)n4)N(C(=O)C2)[C@@H]1C3 [Compound T-218] | < 1000 nM
CC(=O)c1nn2c3c(cc(-c4cnc(C)nc4)cc13)CC=CCCCC(=O)NC[C@@]13C[C@@H](C(=O)Nc4nc(C(F)(F)F)ccc4C)N(C(=O)C2)[C@@H]1C3 [Compound T-219] | < 1000 nM
CC(=O)c1nn2c3c(cc(-c4cnc(C)nc4)cc13)CCCCCCC(=O)NC[C@@]13C[C@@H](C(=O)Nc4nc(C(F)(F)F)ccc4C)N(C(=O)C2)[C@@H]1C3 [Compound T-220] | < 1000 nM
CC(=O)c1nn2c3c(cc(-c4cnc(C)nc4)cc13)CCCCCCC(=O)NC[C@@]13C[C@@H](C(=O)Nc4nc(C#N)ccc4C)N(C(=O)C2)[C@@H]1C3 [Compound T-221] | < 1000 nM
CC(=O)c1nn2c3c(cc(-c4cnc(C)nc4)cc13)CCCCCCC(=O)NC[C@@]13C[C@@H](C(=O)Nc4cccc(-c5cc(F)c(F)cc5Cl)c4F)N(C(=O)C2)[C@@H]1C3 [Compound T-222] | < 1000 nM
CC(=O)c1nn2c3c(cc(-c4cnc(C)nc4)cc13)CCCCCCC(=O)NC[C@@]13C[C@@H](C(=O)Nc4cccc(OC(F)(F)F)c4F)N(C(=O)C2)[C@@H]1C3 [Compound T-223] | < 1000 nM
CC(=O)c1nn(CC(=O)N2[C@H]3C[C@@]4(CNC(=O)C(C)(C)C=CCOCc5ccc(C(F)(F)F)nc5NC3=O)C[C@@H]24)c2cnc(-c3cnc(C)nc3)cc12 [Compound T-224] | < 1000 nM
CC(=O)c1nn(CC(=O)N2[C@H]3C[C@@]4(CNC(=O)C(C)(C)CCCOCc5ccc(C(F)(F)F)nc5NC3=O)C[C@@H]24)c2cnc(-c3cnc(C)nc3)cc12 [Compound T-225] | < 1000 nM
CC(=O)c1nn2c3c(cc(-c4cnc(C)nc4)cc13)CCCCCCC(=O)NC[C@@]13C[C@@H](C(=O)N[C@@H](C)CC(C)(C)C)N(C(=O)C2)[C@@H]1C3 [Compound T-226] | < 1000 nM
CC(=O)c1nn2c3c(cc(-c4cnc(C)nc4)cc13)CCCCCCC(=O)NC[C@@]13CC(C(=O)N[C@H](C)c4cccc(Cl)c4F)N(C(=O)C2)[C@@H]1C3 (some centres unmarked) [Compound T-227] | < 1000 nM
COc1cc(NC(=O)[C@@H]2C[C@]34CNC(=O)CCCCCCc5cc(-c6cnc(C)nc6)cc6c(C(C)=O)nn(c56)CC(=O)N2[C@@H]3C4)nc(Br)c1F [Compound T-228] | < 1000 nM
COc1cc(NC(=O)[C@@H]2C[C@]34CNC(=O)CCCC=CCc5cc(-c6cnc(C)nc6)cc6c(C(C)=O)nn(c56)CC(=O)N2[C@@H]3C4)nc(Br)c1F [Compound T-229] | < 1000 nM
CC(=O)c1nn2c3c(cc(-c4cnc(C)nc4)cc13)CCCCCCC(=O)NC[C@@]13C[C@@H](C(=O)Nc4cc(Br)ccc4F)N(C(=O)C2)[C@@H]1C3 [Compound T-230] | < 1000 nM
CC(=O)c1nn2c3c(cc(-c4cnc(C)nc4)cc13)CCCCCCC(=O)NC[C@@]13C[C@@H](C(=O)N[C@H](C)CC(C)(C)C)N(C(=O)C2)[C@@H]1C3 [Compound T-231] | < 1000 nM
CC(=O)c1nn2c3c(cc(-c4cnc(C)nc4)cc13)CCCCCCC(=O)NC[C@@]13C[C@@H](C(=O)N[C@@H](C)c4cccc(Cl)c4F)N(C(=O)C2)[C@@H]1C3 [Compound T-232] | < 1000 nM
